Measurements as given in patent EP0547317A1, “Endothelin antagonists” (TAKEDA CHEMICAL INDUSTRIES, LTD., priority 1991, dated 1993).
Bridge positions count the residues as written; N and C are the ends. Square brackets hold non-standard residues; d marks the D form. Peptide text beside a SMILES is read from it. tBuAla = CC(C)(C)C[C@H](N)C(=O)O; Cha = N[C@@H](CC1CCCCC1)C(=O)O; Mpa = O=C(O)CCS

Tested on: porcine coronary smooth muscles
Assay: Assay of constrictor suppressing activity on porcine coronary smooth muscles (antagonism of endothelin-1 constriction)
Type: cell-based
Details: for pA₂: antagonistic activity on constriction by endothelin-1 given cumulatively about 15 minutes after the compound, negative logarithm of molar concentration of antagonist shifting the dose response curve by a factor of 2; for Relative potency: antagonistic activity on the constriction of porcine coronary smooth muscles, Example 1 = 100
Description: • (1) Assay of Constrictor Suppressing Activity on Porcine Coronary Smooth Muscles Spiral strips 2 mm x 15 mm prepared from the coronary right ramus circumflexus from which the adventitial connective tissues and the endothelial cells were removed were set to 4 ml organ baths. The tension of each strip was detected by a force displacement transducer UL-10GR (Minebea), and recorded by a polygraph (NEC Sanei). The organ baths were maintained at 37°C, and filled with a Krebs-Henseleit solution (composition: 118 mM NaCl, 4.7 mM KCl, 2.5 mM CaCl₂, 1.2 mM KH₂PO₄, 25.0 mM NaHCO₃, 1.2 mM MgSO₄, 10.0 mM glucose) gassed with 95% O₂ and 5% CO₂. A tension of 1.25 to 1.5 g was applied to each of the strips, followed by equilibration for 1.5 hours. 60 mM KCl was repeatedly applied thereto at intervals of 30 minutes until the constriction response became constant. After additional equilibration for 1.5 hours, a sample for assay was given thereto. The constriction of the strips was normalized by the constriction response of the individual strips to 60 mM KCl and statistically processed. The suppressing activity was determined as a pA₂ value by giving endothelin-1 cumulatively about 15 minutes after the compound having a predetermined concentration was given, and comparing the constriction thereof with that of a control sample in which only endothelin-1 was given. […] Such a case has not been reported yet. […] The affinity for the receptor was assayed by the following method.

SMILES | pA₂ | Relative potency
CC[C@H](C)[C@H](NC(=O)[C@H](CC(C)C)NC(=O)[C@@H](NC(=O)[C@H](CC(C)C)NC(=O)[C@H](Cc1c[nH]cn1)NC(=O)[C@@H]1CSSC[C@H](N)C(=O)N[C@@H](CO)C(=O)N[C@H]2CSSC[C@H](NC(=O)[C@H](CCC(=O)O)NC(=O)[C@H](CCCCN)NC(=O)[C@H](CC(=O)O)NC(=O)[C@H](CCSC)NC(=O)[C@H](CC(C)C)NC(=O)[C@H](CO)NC(=O)[C@H](CO)NC2=O)C(=O)N[C@@H](C(C)C)C(=O)N[C@@H](Cc2ccc(O)cc2)C(=O)N[C@@H](Cc2ccccc2)C(=O)N1)[C@@H](C)O)C(=O)N[C@@H](Cc1c[nH]c2ccccc12)C(=O)O [Example 1, [Thr¹⁸, Leu¹⁹]-ET-1] (H-CSCSSLMDKECVYFCHLTLIW-OH; disulfide 1-15, 3-11) | 7.7 | 100
CC[C@H](C)[C@H](NC(=O)[C@H](CC(C)C)NC(=O)[C@H](CO)NC(=O)[C@H](CC(C)C)NC(=O)[C@H](Cc1c[nH]cn1)NC(=O)[C@@H]1CSSC[C@H](N)C(=O)N[C@@H](CO)C(=O)N[C@H]2CSSC[C@H](NC(=O)[C@H](CCC(=O)O)NC(=O)[C@H](CCCCN)NC(=O)[C@H](CC(=O)O)NC(=O)[C@H](CCSC)NC(=O)[C@H](CC(C)C)NC(=O)[C@H](CO)NC(=O)[C@H](CO)NC2=O)C(=O)N[C@@H](C(C)C)C(=O)N[C@@H](Cc2ccc(O)cc2)C(=O)N[C@@H](Cc2ccccc2)C(=O)N1)C(=O)N[C@@H](Cc1c[nH]c2ccccc12)C(=O)O [Example 6, [Ser¹⁸, Leu¹⁹]-ET-1] (H-CSCSSLMDKECVYFCHLSLIW-OH; disulfide 1-15, 3-11) | 7.5 | 63
CC[C@H](C)[C@H](NC(=O)[C@H](CC(C)(C)C)NC(=O)[C@@H](NC(=O)[C@H](CC(C)C)NC(=O)[C@H](Cc1c[nH]cn1)NC(=O)[C@@H]1CSSC[C@H](N)C(=O)N[C@@H](CO)C(=O)N[C@H]2CSSC[C@H](NC(=O)[C@H](CCC(=O)O)NC(=O)[C@H](CCCCN)NC(=O)[C@H](CC(=O)O)NC(=O)[C@H](CCSC)NC(=O)[C@H](CC(C)C)NC(=O)[C@H](CO)NC(=O)[C@H](CO)NC2=O)C(=O)N[C@@H](C(C)C)C(=O)N[C@@H](Cc2ccc(O)cc2)C(=O)N[C@@H](Cc2ccccc2)C(=O)N1)[C@@H](C)O)C(=O)N[C@@H](Cc1c[nH]c2ccccc12)C(=O)O [Example 4, [Thr¹⁸, γLeu¹⁹]-ET-1] (H-CSCSSLMDKECVYFCHLT[tBuAla]IW-OH; disulfide 1-15, 3-11) | 7.4 | 50
CC[C@H](C)[C@H](NC(=O)[C@H](CC1CCCCC1)NC(=O)[C@@H](NC(=O)[C@H](CC(C)C)NC(=O)[C@H](Cc1c[nH]cn1)NC(=O)[C@@H]1CSSC[C@H](N)C(=O)N[C@@H](CO)C(=O)N[C@H]2CSSC[C@H](NC(=O)[C@H](CCC(=O)O)NC(=O)[C@H](CCCCN)NC(=O)[C@H](CC(=O)O)NC(=O)[C@H](CCSC)NC(=O)[C@H](CC(C)C)NC(=O)[C@H](CO)NC(=O)[C@H](CO)NC2=O)C(=O)N[C@@H](C(C)C)C(=O)N[C@@H](Cc2ccc(O)cc2)C(=O)N[C@@H](Cc2ccccc2)C(=O)N1)[C@@H](C)O)C(=O)N[C@@H](Cc1c[nH]c2ccccc12)C(=O)O [Example 2, [Thr¹⁸, Cha¹⁹]-ET-1] (H-CSCSSLMDKECVYFCHLT[Cha]IW-OH; disulfide 1-15, 3-11) | 7.7 | 100
CC[C@H](C)[C@H](NC(=O)[C@H](CC(C)C)NC(=O)[C@@H](NC(=O)[C@H](CC(C)C)NC(=O)[C@H](Cc1c[nH]cn1)NC(=O)[C@@H]1CSSC[C@H](N)C(=O)N[C@@H](CO)C(=O)N[C@H]2CSSC[C@H](NC(=O)[C@H](CCC(=O)O)NC(=O)[C@H](C)NC(=O)[C@H](CC(=O)O)NC(=O)[C@H](CCSC)NC(=O)[C@H](CC(C)C)NC(=O)[C@H](CO)NC(=O)[C@H](CO)NC2=O)C(=O)N[C@@H](C(C)C)C(=O)N[C@@H](Cc2ccc(O)cc2)C(=O)N[C@@H](Cc2ccccc2)C(=O)N1)[C@@H](C)O)C(=O)N[C@@H](Cc1c[nH]c2ccccc12)C(=O)O [Example 10, [Ala⁹, Thr¹⁸, Leu¹⁹]-ET-1] (H-CSCSSLMDAECVYFCHLTLIW-OH; disulfide 1-15, 3-11) | 5.9 | 1.6
CC[C@H](C)[C@H](NC(=O)[C@H](CC(C)C)NC(=O)[C@@H](NC(=O)[C@H](CC(C)C)NC(=O)[C@H](Cc1c[nH]cn1)NC(=O)[C@@H]1CSSC[C@H](N)C(=O)N[C@@H](CO)C(=O)N[C@H]2CSSC[C@H](NC(=O)[C@H](CCC(=O)O)NC(=O)[C@H](CCCCN)NC(=O)[C@H](CC(=O)O)NC(=O)[C@H](CCSC)NC(=O)[C@H](CC(C)C)NC(=O)[C@H](C)NC(=O)[C@H](CO)NC2=O)C(=O)N[C@@H](C(C)C)C(=O)N[C@@H](Cc2ccc(O)cc2)C(=O)N[C@@H](Cc2ccccc2)C(=O)N1)[C@@H](C)O)C(=O)N[C@@H](Cc1c[nH]c2ccccc12)C(=O)O [Example 14, [Ala⁵, Thr¹⁸, Leu¹⁹]-ET-1] (H-CSCSALMDKECVYFCHLTLIW-OH; disulfide 1-15, 3-11) | 5.5 | 0.6
CC[C@H](C)[C@H](NC(=O)[C@H](CC(C)C)NC(=O)[C@@H](NC(=O)[C@H](CC(C)C)NC(=O)[C@H](Cc1c[nH]cn1)NC(=O)[C@@H]1CSSC[C@H](N)C(=O)N[C@@H](CO)C(=O)N[C@H]2CSSC[C@H](NC(=O)[C@H](CCC(=O)O)NC(=O)[C@H](CCCCN)NC(=O)[C@H](CC(=O)O)NC(=O)[C@H](CCSC)NC(=O)[C@H](CC(C)C)NC(=O)[C@H](CO)NC(=O)[C@H](C)NC2=O)C(=O)N[C@@H](C(C)C)C(=O)N[C@@H](Cc2ccc(O)cc2)C(=O)N[C@@H](Cc2ccccc2)C(=O)N1)[C@@H](C)O)C(=O)N[C@@H](Cc1c[nH]c2ccccc12)C(=O)O [Example 13, [Ala⁴, Thr¹⁸, Leu¹⁹]-ET-1] (H-CSCASLMDKECVYFCHLTLIW-OH; disulfide 1-15, 3-11) | 6.9 | 16
CC[C@H](C)[C@H](NC(=O)[C@H](CC(C)C)NC(=O)[C@@H](NC(=O)[C@H](CC(C)C)NC(=O)[C@H](Cc1c[nH]cn1)NC(=O)[C@@H]1CSSCCC(=O)N[C@@H](CO)C(=O)N[C@H]2CSSC[C@H](NC(=O)[C@H](CCC(=O)O)NC(=O)[C@H](CCCCN)NC(=O)[C@H](CC(=O)O)NC(=O)[C@H](CCSC)NC(=O)[C@H](CC(C)C)NC(=O)[C@H](CO)NC(=O)[C@H](CO)NC2=O)C(=O)N[C@@H](C(C)C)C(=O)N[C@@H](Cc2ccc(O)cc2)C(=O)N[C@@H](Cc2ccccc2)C(=O)N1)[C@@H](C)O)C(=O)N[C@@H](Cc1c[nH]c2ccccc12)C(=O)O [Example 11, [Mpr¹, Thr¹⁸, Leu¹⁹]-ET-1] ([Mpa]SCSSLMDKECVYFCHLTLIW-OH; disulfide 1-15, 3-11) | 6.5 | 6
CC[C@H](C)[C@H](NC(=O)[C@H](CC(C)C)NC(=O)[C@@H](NC(=O)[C@H](CC(C)C)NC(=O)[C@H](Cc1c[nH]cn1)NC(=O)[C@@H]1CSSC[C@H](N)C(=O)N[C@@H](CO)C(=O)N[C@H]2CSSC[C@H](NC(=O)[C@H](CCC(=O)O)NC(=O)[C@H](CCCCN)NC(=O)[C@H](CC(=O)O)NC(=O)[C@H](CCSC)NC(=O)[C@H](C)NC(=O)[C@H](CO)NC(=O)[C@H](CO)NC2=O)C(=O)N[C@@H](C(C)C)C(=O)N[C@@H](Cc2ccc(O)cc2)C(=O)N[C@@H](Cc2ccccc2)C(=O)N1)[C@@H](C)O)C(=O)N[C@@H](Cc1c[nH]c2ccccc12)C(=O)O [Example 15, [Ala⁶, Thr¹⁸, Leu¹⁹]-ET-1] (H-CSCSSAMDKECVYFCHLTLIW-OH; disulfide 1-15, 3-11) | 6.5 | 6
